The results in this text go back to PubChem BioAssay AID328 (DTP/NCI, 2004).

This assay has as its system BDF1 mice, P388 leukemia ip, median survival T/C. In words: NCI In Vivo Anticancer Drug Screen. Data for tumor model P388 Leukemia (intraperitoneal) in B6D2F1 (BDF1) mice. To be noted: endpoint: median survival time, higher = longer survival. In short, it runs like this:
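Compound-treated tumour-bearing mice were compared with vehicle-treated controls. Survival was recorded, and the value is the treated-group measurement divided by the control-group measurement (T/C).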

Setting [1] is: dose: 50.0 mg/kg/injection, schedule: Q01DX009 (ip), vehicle: water.
Where [2] appears, read: dose: 100.0 mg/kg/injection, schedule: Q01DX009 (ip), vehicle: water.
[3] abbreviates: dose: 100.0 mg/kg/injection, schedule: Q04DX003 (ip), vehicle: water.
The mark [4] stands for this setting: dose: 200.0 mg/kg/injection, schedule: Q04DX003 (ip), vehicle: water.
Where [5] appears, read: dose: 400.0 mg/kg/injection, schedule: Q04DX003 (ip), vehicle: water.
[6] abbreviates: dose: 50.0 mg/kg/injection, schedule: Q01DX009 (ip), vehicle: saline with Tween-80.
The mark [7] stands for this setting: dose: 100.0 mg/kg/injection, schedule: Q01DX009 (ip), vehicle: saline with Tween-80.
[8] abbreviates: dose: 200.0 mg/kg/injection, schedule: Q01DX009 (ip), vehicle: saline with Tween-80.

Where “and” joins values, the source holds several entries; their conditions need not be identical. Identical values can stand only once. Inconclusive results and toxic doses are left out.

Regarding `Oc1cc(N2CC2)c(O)cc1N1CC1`, the T/C is 150 % of control (dose: 0.02 mg/kg/injection, schedule: Q01DX009 (ip), vehicle: saline); 154 % of control (dose: 0.03 mg/kg/injection, schedule: Q01DX009 (ip), vehicle: saline); 171 % of control (dose: 0.1 mg/kg/injection, schedule: Q01DX009 (ip), vehicle: saline); 200 % of control and 213 % of control (dose: 0.13 mg/kg/injection, schedule: Q01DX009 (ip), vehicle: saline); 186 % of control and 204 % of control (dose: 0.2 mg/kg/injection, schedule: Q01DX009 (ip), vehicle: saline); 204 % of control (dose: 0.3 mg/kg/injection, schedule: Q01DX009 (ip), vehicle: saline). Moreover, the T/C is 200 % of control (dose: 0.44 mg/kg/injection, schedule: Q01DX009 (ip), vehicle: saline); 150 % of control (dose: 0.47 mg/kg/injection, schedule: Q04DX003 (ip), vehicle: saline); 263 % of control (dose: 0.68 mg/kg/injection, schedule: Q01DX009 (ip), vehicle: saline); 200 % of control (dose: 0.72 mg/kg/injection, schedule: Q04DX003 (ip), vehicle: saline); 268 % of control (dose: 1.0 mg/kg/injection, schedule: Q01DX009 (ip), vehicle: saline); 220 % of control (dose: 1.08 mg/kg/injection, schedule: Q04DX003 (ip), vehicle: saline). In addition, the T/C by setting is: (dose: 1.65 mg/kg/injection, schedule: Q04DX003 (ip), vehicle: saline) 225 % of control; (dose: 2.5 mg/kg/injection, schedule: Q04DX003 (ip), vehicle: saline) 225 % of control and 150 % of control; (dose: 3.75 mg/kg/injection, schedule: Q04DX003 (ip), vehicle: saline) 90 % of control; (dose: 16.0 micrograms/kg/injection, schedule: Q01DX009 (ip), vehicle: saline) 105 % of control; (dose: 25.0 micrograms/kg/injection, schedule: Q01DX009 (ip), vehicle: saline) 102 % of control; (dose: 38.0 micrograms/kg/injection, schedule: Q01DX009 (ip), vehicle: Klucel (hydroxypropylcellulose) (HPC)) 190 % of control. Also, the T/C by setting is: (dose: 58.0 micrograms/kg/injection, schedule: Q01DX009 (ip), vehicle: Klucel (hydroxypropylcellulose) (HPC)) 200 % of control; (dose: 88.0 micrograms/kg/injection, schedule: Q01DX009 (ip), vehicle: saline) 179 % of control; (dose: 132.0 micrograms/kg/injection, schedule: Q01DX009 (ip), vehicle: saline) 120 % of control.
With `COc1cc(/C=N/NC(=O)COCC(=O)N/N=C/c2ccc(O)cc2OC)ccc1O`, the T/C (dose: 200.0 mg/kg/injection, schedule: Q01DX005 (ip), vehicle: saline with Tween-80) was 96 % of control.
For `[O-][n+]1c(-c2ccccc2)cn2ccccc21`, the T/C runs as follows: (dose: 100.0 mg/kg/injection, schedule: Q01DX001 (ip), vehicle: saline with Tween-80) 105 % of control; (dose: 200.0 mg/kg/injection, schedule: Q01DX001 (ip), vehicle: saline with Tween-80) 98 % of control.
For `O=c1[nH]c2nccnc2[nH]1`, the T/C was 93 % of control and 99 % of control (dose: 12.5 mg/kg/injection, schedule: Q01DX009 (ip), vehicle: water); 90 % of control and 104 % of control (dose: 25.0 mg/kg/injection, schedule: Q01DX009 (ip), vehicle: water); 97 % of control under setting [1]; 107 % of control (dose: 50.0 mg/kg/injection, schedule: Q04DX003 (ip), vehicle: water); 89 % of control and 101 % of control and 109 % of control under setting [2]; 105 % of control under setting [3]. Further, the T/C reads like this: under setting [4], 107 % of control; under setting [5], 116 % of control.
Take `CNC(C)COc1ccccc1` (configuration not stated): the T/C (dose: 25.0 mg/kg/injection, schedule: Q04DX003 (ip), vehicle: saline) was 104 % of control; the T/C (dose: 50.0 mg/kg/injection, schedule: Q04DX003 (ip), vehicle: saline) is 100 % of control; the T/C (dose: 100.0 mg/kg/injection, schedule: Q04DX003 (ip), vehicle: saline) is 90 % of control.
For the compound `CCCCCCCCCCCCOCCCCCCCCCCCC`, the T/C (dose: 100.0 mg/kg/injection, schedule: Q01DX009 (sc), vehicle: olive oil, sesame oil, peanut oil) was 100 % of control; the T/C (dose: 100.0 mg/kg/injection, schedule: Q04DX003 (sc), vehicle: olive oil, sesame oil, peanut oil) is 109 % of control; the T/C (dose: 200.0 mg/kg/injection, schedule: Q01DX009 (sc), vehicle: olive oil, sesame oil, peanut oil) was 100 % of control; the T/C (dose: 200.0 mg/kg/injection, schedule: Q04DX003 (sc), vehicle: olive oil, sesame oil, peanut oil) is 100 % of control; the T/C (dose: 400.0 mg/kg/injection, schedule: Q01DX009 (sc), vehicle: olive oil, sesame oil, peanut oil) was 95 % of control; the T/C (dose: 400.0 mg/kg/injection, schedule: Q04DX003 (sc), vehicle: olive oil, sesame oil, peanut oil) is 100 % of control.
`CC(CC(=O)c1ccccc1)=Nc1ccccc1.CC(CC(=O)c1ccccc1)=Nc1ccccc1.[Cu]`: the T/C (dose: 100.0 mg/kg/injection, schedule: Q01DX001 (ip), vehicle: saline sonified) was 100 % of control; the T/C (dose: 200.0 mg/kg/injection, schedule: Q01DX001 (ip), vehicle: saline sonified) was 100 % of control; the T/C (dose: 400.0 mg/kg/injection, schedule: Q01DX001 (ip), vehicle: saline sonified) is 90 % of control.
Consider `O=C1C(Cl)=C(N2CC2)C(=O)C(Cl)=C1N1CC1`, for which the T/C runs as follows: (dose: 1.25 mg/kg/injection, schedule: Q01DX009 (ip), vehicle: saline with Tween-80) 172 % of control; (dose: 2.5 mg/kg/injection, schedule: Q01DX009 (ip), vehicle: Klucel (hydroxypropylcellulose) (HPC)) 150 % of control; (dose: 2.5 mg/kg/injection, schedule: Q01DX009 (ip), vehicle: saline with Tween-80) 169 % of control; (dose: 5.0 mg/kg/injection, schedule: Q01DX009 (ip), vehicle: Klucel (hydroxypropylcellulose) (HPC)) 157 % of control and 165 % of control; (dose: 5.0 mg/kg/injection, schedule: Q01DX009 (ip), vehicle: saline with Tween-80) 172 % of control; (dose: 5.0 mg/kg/injection, schedule: Q01DX009 (ip), vehicle: saline) 155 % of control and 165 % of control. Further, the T/C is 123 % of control (dose: 10.0 mg/kg/injection, schedule: Q01DX009 (ip), vehicle: Klucel (hydroxypropylcellulose) (HPC)); 169 % of control (dose: 10.0 mg/kg/injection, schedule: Q01DX009 (ip), vehicle: saline with Tween-80); 163 % of control and 200 % of control (dose: 10.0 mg/kg/injection, schedule: Q01DX009 (ip), vehicle: saline).
For `CC(=O)N\C(N)=N/N=C\C(C)=N/N=C(\N)NC(C)=O`, the T/C reads like this: under setting [6], 97 % of control; under setting [7], 100 % of control; under setting [8], 100 % of control.
On to `SC1CC[N-]CC1.SC1CC[N-]CC1.[Cl][Pt+2][Cl]`, for which the T/C is 107 % of control under setting [1]; 91 % of control under setting [2]; 98 % of control under setting [3]; 98 % of control under setting [4]; 96 % of control under setting [5].
As for `c1ccc(-c2ccc(-c3cn4ccsc4n3)cc2)cc1`, the T/C is, setting by setting: (dose: 100.0 mg/kg/injection, schedule: Q01DX001 (ip), vehicle: Klucel (hydroxypropylcellulose) (HPC)) 101 % of control; (dose: 200.0 mg/kg/injection, schedule: Q01DX001 (ip), vehicle: Klucel (hydroxypropylcellulose) (HPC)) 99 % of control; (dose: 400.0 mg/kg/injection, schedule: Q01DX001 (ip), vehicle: Klucel (hydroxypropylcellulose) (HPC)) 100 % of control.
For the compound `Nc1nc2c(c(=O)[nH]1)NC(CCNc1ccc(C(=O)O)cc1)CN2` (configuration not stated), the T/C (dose: 100.0 mg/kg/injection, schedule: Q04DX003 (ip), vehicle: saline with Tween-80) is 86 % of control.
Turning to `Cn1c(N)c(N=Nc2ccccc2Cl)c(=O)n(C)c1=O`, the T/C is 98 % of control under setting [6], 99 % of control under setting [7] and 100 % of control under setting [8].
With `COc1ccc(Nc2cccc(Cl)c2)c(C(=O)O)c1`, the T/C is 122 % of control (dose: 20.0 mg/kg/injection, schedule: Q01DX001 (ip), vehicle: Klucel (hydroxypropylcellulose) (HPC)); 100 % of control (dose: 40.0 mg/kg/injection, schedule: Q01DX001 (ip), vehicle: Klucel (hydroxypropylcellulose) (HPC)); 104 % of control (dose: 75.0 mg/kg/injection, schedule: Q01DX001 (ip), vehicle: Klucel (hydroxypropylcellulose) (HPC)); 100 % of control (dose: 150.0 mg/kg/injection, schedule: Q01DX001 (ip), vehicle: Klucel (hydroxypropylcellulose) (HPC)).
